Results from publication PMC13316043, “Structural basis of NSD2 degradation via targeted recruitment of SCF-FBXO22” (Nature Communications, 2026).

System: His-tagged NSD2 PWWP1
Experiment: TR-FRET cooperativity (competition) assay: displacement of biotinylated NSD2 ligand UNC7096
Type: binding, human
Excerpt: Because of the direct interactions observed between FBXO22 and NSD2, we hypothesized that some degree of cooperative binding could facilitate complex stabilization. Therefore, we developed a TR-FRET assay to monitor the interaction between his-tagged NSD2 and a biotinylated NSD2 ligand, UNC7096, that is missing the modality for FBXO22-recruitment (Supplementary Fig. 3D)[20]. Given the positive FRET signal observed when both NSD2 PWWP1 and UNC7096 are present, we used this setup to evaluate the displacement of UNC7096 by UNC10088 in the presence or absence of the FBXO22 FIST domain (Supplementary Fig. 3D). […] Importantly, this FBXO22-dependent enhancement of NSD2 antagonism by UNC10088 was absent when C326 was substituted for alanine (Supplementary Fig. 3F). Taken together, the SCF^FBXO22-NSD2 PWWP1 structure both confirms prior results and provides additional insight into the surfaces that contribute to a cooperative interaction between NSD2 and FBXO22 to promote potent NSD2 polyubiquitination and degradation.
The TR-FRET assay was adapted to assess cooperativity from the following workflows previously reported[39],[40]. Assays were performed in white, low-volume, flat-bottom, nonbinding 384-well microplates (Greiner, Catalog No. 784904) with a final assay volume of 10 μL per well. The assay buffer contained 20 mM Tris–HCl (pH 7.5) and 150mM NaCl, 0.05% Tween-20 (v/v), 2mM DTT, and 1% DMSO (v/v). LANCE Europium (Eu)-W8044 Streptavidin conjugate (2 nM) and LANCE Ultra ULight-anti6x-His labeled antibodies (10 nM) were used as donor and acceptor fluorophores associated with the tracer ligand and protein, respectively. Final assay concentrations of 63 nM His-tagged NSD2 PWWP1 and 31 nM of UNC7096 (a biotinylated version of the NSD2 ligand) as a tracer ligand were used for compound testing. UNC8732, UNC10088, and UNC10415667 were diluted in a 10-point, 3-fold serial dilution, and indicated compounds were pre-incubated with FBXO22 FIST for 30 min. A master mix of NSD2 PWWP1, UNC7096, and TR-FRET reagents was made prior to its addition to the compounds and/or FBXO22 FIST. The plates were sealed with metallic covers, mixed gently for 1 min, and incubated in the dark for 1 h. After 1 h, the plate was read on an EnVision 2103 plate reader with a 320 nm excitation filter and 615 nm/ 665 nm emission filters simultaneously with a dual mirror D400/D630 and a 100 μs delay. […] Raw TR-FRET signals were normalized to a high inhibition control (10 μM of UNC10088) and negative control (1% DMSO). The normalized TR-FRET signals were plotted against the compound concentrations. […] Ki values were calculated from the IC50s using the tight-binding model[41],[42]. The cooperativity factor (α) was calculated as the ratio of Ki (Binary)/ Ki (Ternary), with α > 1 indicating positive cooperativity between NSD2 PWWP1 and FBXO22 FIST based on its disruption of NSD2 binding to UNC7096.

Q: Which “fold reduction of IC50 upon addition of FBXO22” value (IC50 alone vs with FBXO22 FIST) does the source give for `O=C1COc2cc(C(=O)N(Cc3ccc(C(=O)Nc4ccc5c(c4)CCN(C(=O)CCCCC(O)S(=O)(=O)O)C5)cc3)C3CC3)ccc2N1` (stereo not drawn) [UNC10088] here?
A: about 2.5 fold

Q: And the “cooperativity factor (α) = Ki (Binary)/Ki (Ternary)” value (NSD2 PWWP1 with vs without FBXO22 FIST, with preincubation)?
A: 3.3

Q: And the “cooperativity factor (α) without preincubation” value (compound not preincubated with FBXO22)?
A: 3.1
